According to the NIST ThermoML archive (doi:10.1021/je1007197):

Experiment: xn = mol fraction of the nth substance listed
Settings: Liquid, Hot wire method

CCCCOCCO [2-butoxyethan-1-ol] + O
Settings	thermal conductivity [W/m/K]
304.15 K, 100 kPa, x1 = 0.0478	0.4533
304.15 K, 100 kPa, x1 = 0.1732	0.2813
304.15 K, 100 kPa, x1 = 0.5	0.1837
304.15 K, 100 kPa, x1 = 0.75	0.1655
304.15 K, 10300 kPa, x1 = 0.5	0.1877
304.15 K, 10300 kPa, x1 = 0.75	0.169
304.15 K, 14200 kPa, x1 = 0.0478	0.4568
304.15 K, 15000 kPa, x1 = 0.5	0.189
304.15 K, 19300 kPa, x1 = 0.75	0.1717
304.15 K, 20300 kPa, x1 = 0.1732	0.2857
304.15 K, 26700 kPa, x1 = 0.5	0.1936
304.15 K, 27300 kPa, x1 = 0.0478	0.4622
304.15 K, 30000 kPa, x1 = 0.1732	0.2896
304.15 K, 39500 kPa, x1 = 0.75	0.1771
304.15 K, 41800 kPa, x1 = 0.0478	0.468
304.15 K, 41800 kPa, x1 = 0.5	0.1963
304.15 K, 47200 kPa, x1 = 0.1732	0.2942
304.15 K, 54700 kPa, x1 = 0.5	0.1995
304.15 K, 54700 kPa, x1 = 0.75	0.1812
304.15 K, 55400 kPa, x1 = 0.0478	0.4704
304.15 K, 70100 kPa, x1 = 0.0478	0.4758
304.15 K, 70200 kPa, x1 = 0.1732	0.3008
304.15 K, 70200 kPa, x1 = 0.5	0.2032
304.15 K, 76500 kPa, x1 = 0.75	0.1862
304.15 K, 83900 kPa, x1 = 0.0478	0.478
304.15 K, 84200 kPa, x1 = 0.1732	0.3043
304.15 K, 84200 kPa, x1 = 0.5	0.2066
304.15 K, 91200 kPa, x1 = 0.75	0.19
304.15 K, 98200 kPa, x1 = 0.0478	0.4845
304.15 K, 98200 kPa, x1 = 0.1732	0.3077
304.15 K, 98200 kPa, x1 = 0.75	0.1901
304.15 K, 108700 kPa, x1 = 0.5	0.2127
304.15 K, 110400 kPa, x1 = 0.1732	0.311
304.15 K, 112100 kPa, x1 = 0.0478	0.4875
304.15 K, 112200 kPa, x1 = 0.75	0.1951
304.15 K, 124800 kPa, x1 = 0.5	0.2157
304.15 K, 126000 kPa, x1 = 0.0478	0.4917
304.15 K, 126200 kPa, x1 = 0.1732	0.3147
304.15 K, 127600 kPa, x1 = 0.75	0.1976
304.15 K, 138700 kPa, x1 = 0.0478	0.4958
304.15 K, 140100 kPa, x1 = 0.1732	0.3175
304.15 K, 140100 kPa, x1 = 0.5	0.2189
304.15 K, 140100 kPa, x1 = 0.75	0.2005
304.15 K, 150600 kPa, x1 = 0.1732	0.3195
304.15 K, 150600 kPa, x1 = 0.75	0.2022
317.15 K, 100 kPa, x1 = 0.0478	0.4606
317.15 K, 16400 kPa, x1 = 0.0478	0.4669
317.15 K, 25500 kPa, x1 = 0.0478	0.4697
317.15 K, 41800 kPa, x1 = 0.0478	0.475
317.15 K, 56100 kPa, x1 = 0.0478	0.4789
317.15 K, 70600 kPa, x1 = 0.0478	0.485
317.15 K, 84200 kPa, x1 = 0.0478	0.4875
317.15 K, 98200 kPa, x1 = 0.0478	0.4926
317.15 K, 112200 kPa, x1 = 0.0478	0.4983
317.15 K, 124000 kPa, x1 = 0.0478	0.5008
317.15 K, 141000 kPa, x1 = 0.0478	0.5066
320.9 K, 100 kPa, x1 = 0.0478	0.4774
320.9 K, 2300 kPa, x1 = 0.0478	0.4714
320.9 K, 5000 kPa, x1 = 0.0478	0.4639
320.9 K, 7500 kPa, x1 = 0.0478	0.4677
320.9 K, 10000 kPa, x1 = 0.0478	0.4694
320.9 K, 12500 kPa, x1 = 0.0478	0.4703
320.9 K, 15000 kPa, x1 = 0.0478	0.4705
320.9 K, 19500 kPa, x1 = 0.0478	0.4737
320.9 K, 20000 kPa, x1 = 0.0478	0.4742
320.9 K, 29800 kPa, x1 = 0.0478	0.4774
320.9 K, 52500 kPa, x1 = 0.0478	0.4855
320.9 K, 70200 kPa, x1 = 0.0478	0.4855
320.9 K, 87700 kPa, x1 = 0.0478	0.4986
320.9 K, 105200 kPa, x1 = 0.0478	0.5044
320.9 K, 126200 kPa, x1 = 0.0478	0.5123
321.15 K, 100 kPa, x1 = 0.5	0.1829
321.15 K, 100 kPa, x1 = 0.75	0.1624
321.15 K, 10000 kPa, x1 = 0.5	0.1864
321.15 K, 10000 kPa, x1 = 0.75	0.1656
321.15 K, 19300 kPa, x1 = 0.5	0.1892
321.15 K, 19300 kPa, x1 = 0.75	0.1693
321.15 K, 19700 kPa, x1 = 0.5	0.1896
321.15 K, 28300 kPa, x1 = 0.75	0.1718
321.15 K, 39300 kPa, x1 = 0.75	0.1744
321.15 K, 41800 kPa, x1 = 0.5	0.1959
321.15 K, 56100 kPa, x1 = 0.5	0.2001
321.15 K, 56100 kPa, x1 = 0.75	0.1792
321.15 K, 70200 kPa, x1 = 0.5	0.2034
321.15 K, 71600 kPa, x1 = 0.75	0.1836
321.15 K, 84200 kPa, x1 = 0.5	0.2073
321.15 K, 84200 kPa, x1 = 0.75	0.1871
321.15 K, 96500 kPa, x1 = 0.5	0.2099
321.15 K, 98900 kPa, x1 = 0.75	0.1907
321.15 K, 111500 kPa, x1 = 0.75	0.1929
321.15 K, 112200 kPa, x1 = 0.5	0.2144
321.15 K, 124800 kPa, x1 = 0.75	0.1959
321.15 K, 126900 kPa, x1 = 0.5	0.2172
321.15 K, 141500 kPa, x1 = 0.5	0.2201
321.15 K, 142200 kPa, x1 = 0.75	0.1998
321.15 K, 149900 kPa, x1 = 0.5	0.2213
321.15 K, 150600 kPa, x1 = 0.75	0.2016
322 K, 100 kPa, x1 = 0.0478	0.4932
322 K, 5400 kPa, x1 = 0.0478	0.4886
322 K, 20000 kPa, x1 = 0.0478	0.4931
322 K, 34600 kPa, x1 = 0.0478	0.5006
322 K, 52500 kPa, x1 = 0.0478	0.5069
322 K, 70200 kPa, x1 = 0.0478	0.5149
322 K, 87700 kPa, x1 = 0.0478	0.5221
322 K, 105200 kPa, x1 = 0.0478	0.528
322 K, 119200 kPa, x1 = 0.0478	0.5322
322 K, 133200 kPa, x1 = 0.0478	0.5354
335 K, 100 kPa, x1 = 0.1732	0.2804
335 K, 10000 kPa, x1 = 0.1732	0.2851
335 K, 19000 kPa, x1 = 0.1732	0.2895
335 K, 41800 kPa, x1 = 0.1732	0.2972
335 K, 70200 kPa, x1 = 0.1732	0.306
335 K, 84200 kPa, x1 = 0.1732	0.3077
335 K, 98200 kPa, x1 = 0.1732	0.3111
335 K, 112200 kPa, x1 = 0.1732	0.3153
335 K, 125500 kPa, x1 = 0.1732	0.3205
335 K, 137300 kPa, x1 = 0.1732	0.3218
338.15 K, 100 kPa, x1 = 0.5	0.1796
338.15 K, 100 kPa, x1 = 0.75	0.1594
338.15 K, 10400 kPa, x1 = 0.5	0.1841
338.15 K, 11000 kPa, x1 = 0.75	0.1637
338.15 K, 19000 kPa, x1 = 0.5	0.1866
338.15 K, 19500 kPa, x1 = 0.5	0.1867
338.15 K, 19500 kPa, x1 = 0.75	0.1663
338.15 K, 30700 kPa, x1 = 0.75	0.1702
338.15 K, 39300 kPa, x1 = 0.75	0.1723
338.15 K, 41800 kPa, x1 = 0.5	0.1936
338.15 K, 56100 kPa, x1 = 0.5	0.1986
338.15 K, 56100 kPa, x1 = 0.75	0.1767
338.15 K, 70200 kPa, x1 = 0.5	0.2018
338.15 K, 70200 kPa, x1 = 0.75	0.1812
338.15 K, 80700 kPa, x1 = 0.5	0.2039
338.15 K, 91200 kPa, x1 = 0.75	0.1868
338.15 K, 98200 kPa, x1 = 0.5	0.2083
338.15 K, 105200 kPa, x1 = 0.75	0.1907
338.15 K, 112200 kPa, x1 = 0.5	0.2118
338.15 K, 117800 kPa, x1 = 0.75	0.1924
338.15 K, 126200 kPa, x1 = 0.5	0.2146
338.15 K, 131800 kPa, x1 = 0.75	0.1964
338.15 K, 140800 kPa, x1 = 0.5	0.2183
338.15 K, 147100 kPa, x1 = 0.75	0.1997
346.5 K, 100 kPa, x1 = 0.1732	0.2659
346.5 K, 10000 kPa, x1 = 0.1732	0.2753
346.5 K, 20000 kPa, x1 = 0.1732	0.2796
346.5 K, 29500 kPa, x1 = 0.1732	0.2834
346.5 K, 49000 kPa, x1 = 0.1732	0.2904
346.5 K, 84200 kPa, x1 = 0.1732	0.3009
346.5 K, 98200 kPa, x1 = 0.1732	0.3029
346.5 K, 112200 kPa, x1 = 0.1732	0.3046
346.5 K, 122700 kPa, x1 = 0.1732	0.31
346.5 K, 140100 kPa, x1 = 0.1732	0.3122
346.5 K, 148500 kPa, x1 = 0.1732	0.3128
